Numbers after ± are expanded uncertainties.
Assay: xn = mol fraction of the nth substance listed
Details: for surface tension liquid-gas: Maximal bubble pressure; for mass density: 101 kPa, Liquid, Vibrating tube method

ClC(Cl)(Cl)Cl [tetrachloromethane] + C[S+](C)[O-]
surface tension liquid-gas (298.15 K, x1 = 0.0994): 38.6 ± 0.4 mN/m | surface tension liquid-gas (298.15 K, x1 = 0.1969): 34.6 ± 0.3 mN/m | surface tension liquid-gas (298.15 K, x1 = 0.2513): 32.9 ± 0.3 mN/m | surface tension liquid-gas (298.15 K, x1 = 0.3299): 30.8 ± 0.3 mN/m | surface tension liquid-gas (298.15 K, x1 = 0.383): 29.7 ± 0.3 mN/m | surface tension liquid-gas (298.15 K, x1 = 0.5159): 27.8 ± 0.3 mN/m | surface tension liquid-gas (298.15 K, x1 = 0.6043): 26.8 ± 0.3 mN/m | surface tension liquid-gas (298.15 K, x1 = 0.6909): 25.9 ± 0.3 mN/m | surface tension liquid-gas (298.15 K, x1 = 0.7493): 25.8 ± 0.3 mN/m | surface tension liquid-gas (298.15 K, x1 = 0.8663): 25.4 ± 0.3 mN/m | mass density (298.15 K, x1 = 0.0674): 1141.26 ± 0.37 kg/m3 | mass density (298.15 K, x1 = 0.101): 1163.32 ± 0.39 kg/m3 | mass density (298.15 K, x1 = 0.1349): 1185.11 ± 0.4 kg/m3 | mass density (298.15 K, x1 = 0.1643): 1203.27 ± 0.42 kg/m3 | mass density (298.15 K, x1 = 0.2133): 1232.98 ± 0.44 kg/m3 | mass density (298.15 K, x1 = 0.3045): 1287.19 ± 0.48 kg/m3 | mass density (298.15 K, x1 = 0.4641): 1370.58 ± 0.56 kg/m3 | mass density (298.15 K, x1 = 0.6022): 1433.93 ± 0.61 kg/m3 | mass density (298.15 K, x1 = 0.7132): 1481.07 ± 0.66 kg/m3 | mass density (298.15 K, x1 = 0.7604): 1499.6 ± 0.68 kg/m3 | mass density (298.15 K, x1 = 0.8683): 1539.93 ± 0.72 kg/m3 | mass density (298.15 K, x1 = 0.913): 1555.64 ± 0.73 kg/m3 | surface tension liquid-gas (303.15 K, x1 = 0.0994): 38 ± 0.4 mN/m | surface tension liquid-gas (303.15 K, x1 = 0.1969): 34.2 ± 0.3 mN/m | surface tension liquid-gas (303.15 K, x1 = 0.2513): 32.6 ± 0.3 mN/m | surface tension liquid-gas (303.15 K, x1 = 0.3299): 30.4 ± 0.3 mN/m | surface tension liquid-gas (303.15 K, x1 = 0.383): 29.2 ± 0.3 mN/m | surface tension liquid-gas (303.15 K, x1 = 0.5159): 27.1 ± 0.3 mN/m | surface tension liquid-gas (303.15 K, x1 = 0.6043): 26.2 ± 0.3 mN/m | surface tension liquid-gas (303.15 K, x1 = 0.6909): 25.3 ± 0.3 mN/m | surface tension liquid-gas (303.15 K, x1 = 0.7493): 25.1 ± 0.3 mN/m | surface tension liquid-gas (303.15 K, x1 = 0.8663): 24.6 ± 0.3 mN/m | mass density (303.15 K, x1 = 0.0674): 1135.93 ± 0.37 kg/m3 | mass density (303.15 K, x1 = 0.101): 1157.83 ± 0.38 kg/m3 | mass density (303.15 K, x1 = 0.1349): 1179.45 ± 0.4 kg/m3 | mass density (303.15 K, x1 = 0.1643): 1197.47 ± 0.41 kg/m3 | mass density (303.15 K, x1 = 0.2133): 1226.93 ± 0.43 kg/m3 | mass density (303.15 K, x1 = 0.3045): 1280.68 ± 0.48 kg/m3 | mass density (303.15 K, x1 = 0.4641): 1363.35 ± 0.55 kg/m3 | mass density (303.15 K, x1 = 0.6022): 1425.99 ± 0.61 kg/m3 | mass density (303.15 K, x1 = 0.7132): 1472.61 ± 0.65 kg/m3 | mass density (303.15 K, x1 = 0.7604): 1490.94 ± 0.67 kg/m3 | mass density (303.15 K, x1 = 0.8683): 1530.74 ± 0.71 kg/m3 | mass density (303.15 K, x1 = 0.913): 1546.21 ± 0.72 kg/m3 | surface tension liquid-gas (308.15 K, x1 = 0.0994): 37.4 ± 0.4 mN/m | surface tension liquid-gas (308.15 K, x1 = 0.1969): 33.4 ± 0.3 mN/m | surface tension liquid-gas (308.15 K, x1 = 0.2513): 31.8 ± 0.3 mN/m | surface tension liquid-gas (308.15 K, x1 = 0.3299): 29.8 ± 0.3 mN/m | surface tension liquid-gas (308.15 K, x1 = 0.383): 28.7 ± 0.3 mN/m | surface tension liquid-gas (308.15 K, x1 = 0.5159): 26.6 ± 0.3 mN/m | surface tension liquid-gas (308.15 K, x1 = 0.6043): 25.6 ± 0.3 mN/m | surface tension liquid-gas (308.15 K, x1 = 0.6909): 24.7 ± 0.3 mN/m | surface tension liquid-gas (308.15 K, x1 = 0.7493): 24.5 ± 0.3 mN/m | surface tension liquid-gas (308.15 K, x1 = 0.8663): 24.2 ± 0.3 mN/m | mass density (308.15 K, x1 = 0.0674): 1127.96 ± 0.35 kg/m3 | mass density (308.15 K, x1 = 0.101): 1150.79 ± 0.38 kg/m3 | mass density (308.15 K, x1 = 0.1349): 1172.11 ± 0.39 kg/m3 | mass density (308.15 K, x1 = 0.1643): 1192.66 ± 0.41 kg/m3 | mass density (308.15 K, x1 = 0.2133): 1222.1 ± 0.43 kg/m3 | mass density (308.15 K, x1 = 0.3045): 1273.53 ± 0.47 kg/m3 | mass density (308.15 K, x1 = 0.4641): 1355.26 ± 0.54 kg/m3 | mass density (308.15 K, x1 = 0.6022): 1418.04 ± 0.6 kg/m3 | mass density (308.15 K, x1 = 0.7132): 1464.13 ± 0.64 kg/m3 | mass density (308.15 K, x1 = 0.7604): 1482.25 ± 0.66 kg/m3 | mass density (308.15 K, x1 = 0.8683): 1521.44 ± 0.7 kg/m3 | mass density (308.15 K, x1 = 0.913): 1536.79 ± 0.71 kg/m3 | surface tension liquid-gas (313.15 K, x1 = 0.0994): 36.8 ± 0.4 mN/m | surface tension liquid-gas (313.15 K, x1 = 0.1969): 33 ± 1 mN/m | surface tension liquid-gas (313.15 K, x1 = 0.2513): 31.4 ± 0.3 mN/m | surface tension liquid-gas (313.15 K, x1 = 0.3299): 29.2 ± 0.3 mN/m | surface tension liquid-gas (313.15 K, x1 = 0.383): 28.1 ± 0.3 mN/m | surface tension liquid-gas (313.15 K, x1 = 0.5159): 26 ± 1 mN/m | surface tension liquid-gas (313.15 K, x1 = 0.6043): 25 ± 0.3 mN/m | surface tension liquid-gas (313.15 K, x1 = 0.6909): 24.3 ± 0.3 mN/m | surface tension liquid-gas (313.15 K, x1 = 0.7493): 23.9 ± 0.3 mN/m | surface tension liquid-gas (313.15 K, x1 = 0.8663): 23.7 ± 0.3 mN/m | mass density (313.15 K, x1 = 0.0499): 1116.12 ± 0.34 kg/m3 | mass density (313.15 K, x1 = 0.101): 1146.87 ± 0.37 kg/m3 | mass density (313.15 K, x1 = 0.1349): 1168.13 ± 0.39 kg/m3 | mass density (313.15 K, x1 = 0.1643): 1185.85 ± 0.4 kg/m3 | mass density (313.15 K, x1 = 0.2133): 1214.87 ± 0.42 kg/m3 | mass density (313.15 K, x1 = 0.3045): 1267.49 ± 0.47 kg/m3 | mass density (313.15 K, x1 = 0.4641): 1348.78 ± 0.54 kg/m3 | mass density (313.15 K, x1 = 0.6022): 1410.05 ± 0.59 kg/m3 | mass density (313.15 K, x1 = 0.7132): 1455.61 ± 0.63 kg/m3 | mass density (313.15 K, x1 = 0.7604): 1473.5 ± 0.65 kg/m3 | mass density (313.15 K, x1 = 0.8683): 1512.23 ± 0.69 kg/m3 | mass density (313.15 K, x1 = 0.913): 1527.34 ± 0.7 kg/m3

Reference: the NIST ThermoML archive (doi:10.1016/j.jct.2009.06.021)
